Results published in patent US20230165921A1, “USE OF DANDELION AND MONOMER COMPOUNDS THEREOF FOR KILLING MITES” (SMILEBIOTEK ZHUHAI LIMITED, priority 2020, published 2023).
“Also recorded” adds a separate entry of the source.

Experiments:
[1] = system: Demodex mites; experiment: In-vitro culture of Demodex mites with traditional Chinese medicine decoctions: survival time; parameters: species or system D. folliculorum; conditions: 20° C., humidity 96%
Protocol: The detection of Demodex mites was performed according to the conventional method of eyelash microscopy (12,20). 3 eyelashes were collected from each eyelid, with a total of 12 eyelashes. The collected eyelashes were immediately placed on glass slides with three eyelashes on each glass slide, and the glass slides were examined under a common optical microscope for observation. Demodex mites in all periods were counted and classified according to morphology (specific standard: D. brevis with a head-to-body ratio of 1:1, and D. folliculorum with a head-to-body ratio of 1:3 to 1:4). […]
On the basis of the above detection of Demodex mites, 35 µL of the solutions was separately added to the slides, and the survival of the mites was observed every 2 hours. […] If the two operators gave different results, the survival status was determined independently by a third skilled operator. […]
60 g of dried ready-to-use forms was weighed using an electronic balance, and soaked in water with an amount of 10 times (600 mL) in a marmite overnight. […]
(§1) The in-vitro culture of the Demodex mites was conducted in an environment at a humidity of 96% and a temperature of 20° C. The survival of the Demodex mites was observed dynamically and the survival time was recorded.

[2] = system: Demodex mites; experiment: Preliminary in-vitro screening of monomer compounds for effect on survival time of Demodex mites; parameters: species or system D. folliculorum; conditions: 20° C., humidity 96%; for in-vitro survival time of Demodex mites compared with the negative control group receiving 10% DMSO solution: in words; for Survival time: in vitro, 35 µL monomer compound solution in 10% DMSO, mean ± SD
Protocol: The powders of the monomer compounds shown in Table 2 were separately dissolved in dimethyl sulfoxide (DMSO), and then diluted with sterilized double-distilled water to make the final concentration of DMSO 10%, which could not shorten the survival time of Demodex mites as per a controlled study. The negative control group received DMSO mixed with sterilized water at a final concentration of 10%.
As in Example 1, 35 µL of each solution was added to a glass slide, and the survival of the mites was observed under an optical microscope every 2 hours. During the experiment, the Demodex mites were observed by two skilled operators separately for the activities (bodies, limbs and the like) through the microscope to determine whether they were dead or not. If the two operators gave different results, the survival status was determined independently by a third skilled operator. The in-vitro culture was conducted in a climatic chamber at a temperature of 20° C. and a humidity of 96%. During the observation, the glass slides were transported in a wet box to ensure the high humidity.
In this experiment, statistical analysis was conducted using SPSS22.0 statistical software, normality test was conducted using Shapiro-Wilk test, and homogeneity of variance test was conducted using Bartlett’s test.
as §1, with “Effects of monomer compounds of traditional Chinese medicine on survival time of D. folliculorum The in-vitro” for “The in-vitro”

| SMILES | Survival time ([1]; in vitro, 35 µL solution on slide, decoction 60 g in 100 mL, TTO and T4O 10% in sterilized water, mean ± SD) | in-vitro survival time of Demodex mites compared with the negative control (sterilized water) ([1]; in words) | in-vitro survival time of Demodex mites compared with the negative control group receiving 10% DMSO solution [2] | Survival time [2] |
| --- | --- | --- | --- | --- |
| CC1=CCC(O)(C(C)C)CC1 (stereo not shown) [T4O, terpinen-4-ol] | 40.50 ± 13.12 h | did not show significant differences |  |  |
| COc1ccc(-c2cc(=O)c3c(O)cc(O)cc3o2)cc1O [Diosmetin] |  |  | significantly shorter; also recorded: can significantly shorten the survival time of the mites |  |
| O=C(O)/C=C/c1ccc(O)c(O)c1 [Caffeic acid] |  |  |  | 66.45 ± 24.24 h |
| CC1(C)CC[C@]2(C)CC=C3[C@]4(C)CC[C@H]5C(C)(C)[C@@H](O)CC[C@]5(C)[C@H]4CC[C@@]3(C)[C@@H]2C1 [Taraxerol] |  |  | significantly shorter; also recorded: can significantly shorten the survival time of the mites |  |
| C=C1CC[C@]2(C)CC[C@]3(C)[C@H](CC[C@@H]4[C@@]5(C)CC[C@H](OC(C)=O)C(C)(C)[C@@H]5CC[C@]43C)[C@H]2[C@@H]1C [Taraxasterol acetate] |  |  | significantly shorter; also recorded: can significantly shorten the survival time of the mites | 37.91 ± 20.96 h |
